Experimental data from patent US7348161B2, “Macrolide efflux genetic assembly” (Emory University, priority 2001, dated 2008).
In brackets after ≈: the same amount, converted by molar mass. Values belong to the compound of their own block, whether it stands above or below them. Numbered stars: 1 amine (or outer) side, 2 acyl side, 3 side chain; on linkers, the order of the positions; unused ones are H or OH. Bridge positions count the residues as written; N and C are the ends. Square brackets hold non-standard residues; d marks the D form. Peptide text beside a SMILES is read from it. * marks the point of attachment. X1 = O=C1C[C@@H](C(=O)[*:2])N([*:1])C[C@H]1CS[C@@H]1CN2CCC1CC2; NMePhe(4-NMe2) = CN[C@@H](Cc1ccc(N(C)C)cc1)C(=O)O; Picolinoyl(3-OH) = O=C(c1ncccc1O)*; Phg = N[C@H](C(=O)O)c1ccccc1; dAbu = CC[C@@H](N)C(=O)O

Assays:
[1] = tested on: MefE; conditions: proton motive function of MefE; refs [9,10]; cited from earlier work
[2] = tested on: S. pneumoniae isolates; assay: Antimicrobial susceptibility (NCCLS guidelines) of invasive S. pneumoniae isolates; assay type: cell-based; conditions: Streptococcus pneumoniae
[3] = tested on: pneumococci containing ermAM; conditions: typical value; cited from earlier work
[4] = tested on: invasive pneumococcal isolates; assay: Preliminary screening of 1998 invasive pneumococcal isolates for quinupristin resistance; assay type: cell-based, S. pneumoniae

Compound: arsenate
- Effect on efflux of [14C]-erythromycin [1]: decrease in the efflux

- MIC ([2]; eighty-nine mefE-containing isolates, January 1994 to February 1996): ≥ 4 µg/mL
- MIC ([2]; subset of 336 erythromycin-resistant isolates, 1994-1996 and 1998): 4 µg/mL (≈ 5.45 µM)
Compound: CC[C@H]1OC(=O)[C@H](C)[C@@H](O[C@H]2C[C@@](C)(OC)[C@@H](O)[C@H](C)O2)[C@H](C)[C@@H](O[C@@H]2O[C@H](C)C[C@H](N(C)C)[C@H]2O)[C@](C)(O)C[C@@H](C)C(=O)[C@H](C)[C@@H](O)[C@]1(C)O [erythromycin]
- Erythromycin MIC [3]: 64 µg/mL

Compound: N#CC(C#N)=NNc1cccc(Cl)c1 [carbonylcyanide-m-chlorophenylhydrazone]
- Effect on efflux of [14C]-erythromycin [1]: decrease in the efflux

Compound: CC[C@H]1NC(=O)[C@@H](NC(=O)c2ncccc2O)[C@@H](C)OC(=O)[C@H](c2ccccc2)NC(=O)[C@@H]2CC(=O)[C@H](CS[C@@H]3CN4CCC3CC4)CN2C(=O)[C@H](Cc2ccc(N(C)C)cc2)N(C)C(=O)[C@@H]2CCCN2C1=O [quinupristin] ({Picolinoyl(3-OH)}-T[dAbu]P[NMePhe(4-NMe2)][X1][Phg]; ester 1-C)
- Share of isolates resistant [4]: approximately half were resistant
